Data on 2 molecules can be found in patent publication US20250250312A1, “BIFUNCTIONAL PEPTIDE WITH MU[…] VIRUS BINDING PROPERTIES” (priority 2022, published 2025).

The Kd is the concentration at which binding is half-saturated. Low values mean tighter binding, high ones weaker binding.

Assay [1] has as its target receptor binding domain (RBD) of SARS-CoV-2 (2019-nCoV) (Severe acute respiratory syndrome coronavirus 2, UniProt P0DTC2). Nature of the assay: biochemical. Particulars: Table 4, cysteines in reduced state, MST.
Assay [2] concerns the target receptor binding domain (RBD) of SARS-CoV-2 wildtype (2019-nCoV) (SARS-CoV-2), P0DTC2.

In assay [1], `CC(C)C[C@H](NC(=O)[C@H](Cc1ccccc1)NC(=O)[C@@H](NC(=O)[C@H](CCCCN)NC(=O)[C@H](C)NC(=O)[C@H](CCC(N)=O)NC(=O)[C@H](CCC(=O)O)NC(=O)[C@@H](N)CCC(=O)O)[C@@H](C)O)C(=O)N[C@@H](CC(=O)O)C(=O)N[C@@H](CCCCN)C(=O)N[C@@H](Cc1ccccc1)C(=O)N[C@@H](CC(N)=O)C(=O)N[C@@H](Cc1c[nH]cn1)C(=O)N[C@@H](CCC(=O)O)C(=O)N[C@@H](C)C(=O)N[C@@H](CCC(=O)O)C(=O)N[C@@H](CC(=O)O)C(=O)N[C@@H](CS)C(=O)N[C@@H](Cc1ccccc1)C(=O)N[C@@H](Cc1ccc(O)cc1)C(=O)N[C@@H](CCC(N)=O)C(=O)N[C@@H](CS)C(=O)N[C@@H](CO)C(=O)O` [p4C18, 22] showed a Kd of 218 nM.

With EEQAKTFKDKFDHEAEDLFYQSSGLGKGDFR (modifications not checked) [p6(K)8(D)12], the Kd in assay [2] is 5000 nM.
